Where two headings read alike, the source gives them in different places.
Legend:
[1] = system: Ablagerungen in Aortasegmenten; assay: Calcification (deposit formation) of rat aorta segments in diffusion chambers implanted into the abdominal cavity of rats; histology and morphometry; format: in vivo, Ratten (Sprague-Dawley-Ratten); conditions: for Dicke (Ablagerungsschichtdicke): 2,1 mmol Citrat per day orally in two doses, maximal deposit layer thickness by ocular micrometer, Kontrolle 55; for Dicke (Ablagerungsschichtdicke) / Minimierung der Flächenausdehnung der Ablagerungen im Vergleich zur Kontrolle / Fläche (Flächenausdehnung der Ablagerungen): 22 days; for Minimierung der Flächenausdehnung der Ablagerungen im Vergleich zur Kontrolle / Fläche (Flächenausdehnung der Ablagerungen): 2,1 mmol Citrat per day orally; for Fläche (Flächenausdehnung der Ablagerungen): Kontrolle 240; for histologisch-lichtmikroskopische Untersuchung der Querschnitte der Aortaabschnitte: Kontrolle: pronounced deposit formation; for relative Volumina %: relative to Kontrolle = 100; for relative Volumina: thickness multiplied by area, Kontrolle 13200; for Abnahme der Ablagerungsschichtdicke im Vergleich zu der Kontrolle (Faktor): factor versus Kontrolle (55 µm)
From the text: (§1) Pentobarbital betäubten Ratten (Sprague-Dawley-Ratten) wurde die Aorta aseptisch entnommen, in acht 5 mm große Segmente geschnitten und in sterile Diffusionskammern (Fa. Millipore GmbH, Eschborn), mit einem Durchmesser von 14 mm und einer Porengröße von 0,22 µm fixiert. Jeweils 2 Kammern wurden in die Bauchhöhle einer Ratte implantiert. Die Versuchsgruppen bestanden aus mindestens 7 Ratten.
Folgende wäßrige Citrat-Lösungen wurden oral appliziert:
(§2) Jedem Versuchstier wurden pro Tag 2,1 mmol Citrat oral in zwei gleichen Dosen appliziert, nach 22 Tagen die beiden Diffusionskammern entnommen und die Aorta-Abschnitte licht-, elektronenmikroskopisch, röntgenspektrographisch sowie elementar-analytisch untersucht. Zur histologischen Untersuchung wurden die Gewebeabschnitte in 8% Formalin fixiert, die Aortaabschnitte für die lichtmikroskopischen Untersuchung nach Kossa mit Hämatoxylin und Eosin gefärbt sowie diejenigen zur elektronenmikroskopischen Untersuchung in 2,5% Glutaraldehyd und anschließend in 1% Osmiumtetroxyd fixiert. Die Bestimmung der maximalen Ablagerungsschichtdicke erfolgte mittels Okularmikrometer und die Flächenausdehnung der Ablagerungsschicht der jeweiligen Aortasegmente wurden nach bekannten Methoden ermittelt.

[2] = parameters: species or system Ratten (Sprague-Dawley-Ratten); conditions: rat, in vivo
From the text: as §1, §2
Das bedeutet, daß die Verstoffwechslung erhöhter Gaben von KNC, KC oder NC im Organismus nicht zu einer Veränderung der Serumzusammensetzung führt und daß daher die Nierenfiltration aufgrund der im Normbereich befindlichen Fraktionen der ultrafiltrierbaren und ionablen Fraktion des Serums nicht beeinträchtigt wird.
Um die Wirkung der Applikationen von KNC, NC und KC auf den Hormonhaushalt zu überprüfen, wurde die Konzentration von PTH im Blut analysiert.

[3] = parameters: species or system Ratten (Sprague-Dawley-Ratten); conditions: rat, in vivo; remark: listed apart in the source
From the text: as §1, §2
Der Umstand, daß Alkalicitrate ohne Nebenwirkungen im Gegensatz zu bekannten o.g. Medikamente auf die Nierentätigkeit ist, ergibt sich auch aus der Bestimmung der Urinzusammensetzung [Tabelle (2B)). Die Konzentrationen von beispielsweise cAMP unterschieden sich nur unwesentlich von denen der Kontrolle.

Aortasegmenten = assay: Mineral content and calcium/phosphorus quotient in the implanted aorta segments; format: in vivo, Ratten (Sprague-Dawley-Ratten); conditions: for Calcium, Konzentration in Aortasegmenten: mean (range of measured values), Kontrolle 4,77; for Magnesium, Konzentration in Aortasegmenten / Phosphor, Konzentration in Aortasegmenten: mean (range); for Magnesium, Konzentration in Aortasegmenten: Kontrolle 0,20; for Phosphor, Konzentration in Aortasegmenten: Kontrolle 4,47
From the text: as §1, §2

Substance	Dicke (Ablagerungsschichtdicke) [1]	Minimierung der Flächenausdehnung der Ablagerungen im Vergleich zur Kontrolle [1]	Fläche (Flächenausdehnung der Ablagerungen) [1]	histologisch-lichtmikroskopische Untersuchung der Querschnitte der Aortaabschnitte [1]	relative Volumina % [1]	relative Volumina [1]	Calcium [2]	Calcium/ Protein [2]	Citrat [2]	Ges.CO2 [2]	Ges.Protein [2]	Kreatinin [2]	PTH [2]	arteriell-venöse pH-Wert, Konzentrationen an Gesamt-CO₂, Citrat, Magnesium und Phosphor im Blut [2]	pH [2]	Citrat [3]	Magnesium [3]	cAMP [3]	Calcium, Konzentration in Aortasegmenten (Aortasegmenten)	Phosphor, Konzentration in Aortasegmenten (Aortasegmenten)	further results
K₃C₆H₅O₇ x 1 H₂O [KC]	33 µm	41%	98	gleichmäßig verteilte ohne besondere Erhebungen gestaltete Ablagerungsschicht	25%	3234	2,27 (2,20-2,43)^1 mmol/l	44 (42-46) µmol/g	163 (96-248) µmol/l	45,0 (39,2-50,8) mmol/g	51,0 (48,3-53,3)^2 g/l	31,8 (25,6-39,8) µmol/l	200-468	nicht verändert	7,39 (7,31-7,45)	22,0 (11,3-25,0)^2 µmol/g	3,4 (1,8-9,1)^3 µmol/mg	12,9 (9,9-16,0) nmol/mg	5,09 (3,15-10,81) mmol/g	7,66 (2,97-17,74) mmol/g	Magnesium, Konzentration in Aortasegmenten (Aortasegmenten): 0,28 (0,20-0,43)^2 mmol/g
K₆Na₆H₃(C₆H₅O₇)₅ x 2 H₂O [KNC]	23 µm	54%	131	gleichmäßig gestaltete (ohne besondere Erhebungen), stark verringerte Plaqueschicht	23%	3013	2,27 (2,22-2,33)^1 mmol/l	45 (40-47) µmol/g	164 (55-244) µmol/l	40,9 (36,9-45,1) mmol/g	50,7 (47,5-57,0)^2 g/l	30,9 (15,9-35,4)^2 µmol/l	200-553	nicht verändert	7,39 (7,34-7,43)	20,0 (13,2-30,3)^1 µmol/g	3,7 (1,4-8,0)^3 µmol/mg	11,6 (9,0-15,9) nmol/mg	4,93 (3,40-7,16) mmol/g	6,80 (2,09-10,51)^1 mmol/g	Abnahme der Ablagerungsschichtdicke im Vergleich zu der Kontrolle (Faktor) [1]: 2,4; Ablagerungsdicke im Gegensatz zur Kontrolle ([1]; thickness as percent of Kontrolle): < 55%; PTH-Level im Blut, Unterschied zur Kontrolle [2]: keine Unterschiede; Magnesium in Aortasegmenten, Vergleich der Gruppen (Aortasegmenten; in words): höchsten Magnesiumanstieg
Na₃C₆H₅O₇ x 2 H₂O [NC]	–	–	159	gleichmäßig verteilte ohne besondere Erhebungen gestaltete Ablagerungsschicht	31%	4134	2,20 (2,04-2,30)^3 mmol/l	46 (42-50) µmol/g	171 (140-212) µmol/l	40,9 (29,6-51,8) mmol/g	48,3 (44,8-55,3)^2 g/l	31,8 (30,1-33,6)^1 µmol/l	200-415	nicht verändert	7,43 (7,35-7,49)	19,7 (15,8-30,4)^2 µmol/g	4,0 (2,6-8,0)^3 µmol/mg	13,5 (12,1-14,2) nmol/mg	4,20 (2,61-10,90) mmol/g	6,35 (3,34-14,60) mmol/g	Abnahme der Ablagerungsschichtdicke im Vergleich zu der Kontrolle (Faktor) [1]: > 2; Magnesium, Konzentration in Aortasegmenten (Aortasegmenten): 0,28 (0,20-0,33)^1 mmol/g
